In US4560662A, “Streptomyces antibioticus ATCC 31771 and process for obtaining same” (priority 1981, dated 1985):
Converted amounts (≈) assume the structure as drawn.

Experiments:
[1] = tested on: Clostridium perfrigens ATCC 3624; assay: Bacteriostatic power in solid medium (MIC), anaerobic; assay type: cell-based; conditions: Clostridium, ATCC3624, LRP 206, read-out: minimum inhibiting concentration
[2] = tested on: Proteus vulgaris ATCC 6380; assay: Bacteriostatic power in solid medium (MIC), aerobic Gram negative; assay type: cell-based; conditions: Proteus vulgaris, ATCC6380, read-out: minimum inhibiting concentration
[3] = tested on: Mycoplasma hominis I ATCC 14097; assay: as above; assay type: cell-based; conditions: Metamycoplasma hominis, ATCC14097, read-out: minimum inhibiting concentration
[4] = tested on: Streptococcus pyogenes ATCC 8668; assay: Bacteriostatic power in solid medium (MIC), aerobic Gram positive; assay type: cell-based; conditions: Streptococcus pyogenes, ATCC8668; solid medium; LRP 34; read-out: minimum inhibiting concentration
[5] = tested on: Staphylococcus aureus ATCC 14154; assay: as above; assay type: cell-based; conditions: Staphylococcus aureus, ATCC14154, LRP 78, Erythromicina resistant, read-out: minimum inhibiting concentration
From the text: (§1) Turning now to an examination of the novel macrolide antibiotics produced according to the present invention, they are all characterized by a bacteriostatic spectrum like that of erythromycin and by the stability in acidic environment, whereby their direct administration by oral route is possible, without having recourse to esters and/or salts, showing the afore mentioned disadvantages and problems. The above is confirmed by the following Table 1, wherein the MIC values are reported, indicating the bacteriostatic power, and by the Table 2, giving the stability values in acidic environment. Without having to be construed in a limiting sense, it seems plausible that the greater stability of the macrolide. antibiotics of the present invention can be attributed to the presence in the molecule of the antibiotic of the neutral sugar oleandrose (J. Antib. (1976) XXIX (7), 728).
(§2) Bacteriostatic power in solid medium of Erythromycin A, Erythromycin B,
(§3) aerobic and anaerobic bacteria, Gram positive and Gram negative minimum
(§4) inhibiting concentrations expressed in mcg/ml.

[6] = tested on: Micrococcus luteus ATCC 15957; assay: as above; assay type: cell-based; conditions: Micrococcus luteus, ATCC15957, LRP 193, Erythromicina resistant, read-out: minimum inhibiting concentration
From the text: as §1, §2, §3, §4

[7] = tested on: Staphylococcus aureus ATCC 6538 P; assay: as above; assay type: cell-based; conditions: Staphylococcus aureus, ATCC6538; solid medium; LRP 39; read-out: minimum inhibiting concentration
[8] = tested on: Salmonella typhi LRP 8; assay: Bacteriostatic power in solid medium (MIC), aerobic Gram negative; assay type: cell-based; conditions: Salmonella enterica, TYPHI, read-out: minimum inhibiting concentration
[9] = tested on: Bacillus subtilis LRP 25; assay: Bacteriostatic power in solid medium (MIC), aerobic Gram positive; assay type: cell-based; conditions: Bacillus subtilis, LRP25; solid medium; LRP 25; read-out: minimum inhibiting concentration
[10] = tested on: Escherichia coli LRP 50; assay: Bacteriostatic power in solid medium (MIC), aerobic Gram negative; assay type: cell-based; conditions: Escherichia coli, LRP50, read-out: minimum inhibiting concentration
[11] = tested on: Staphylococcus aureus LRP 14; assay: Bacteriostatic power in solid medium (MIC), aerobic Gram positive; assay type: cell-based; conditions: Staphylococcus aureus, LRP14; solid medium; LRP 14; Penycilline resistant; read-out: minimum inhibiting concentration
[12] = tested on: Klebsiella pneumoniae LRP 54; assay: Bacteriostatic power in solid medium (MIC), aerobic Gram negative; assay type: cell-based; conditions: Klebsiella pneumoniae, LRP54, read-out: minimum inhibiting concentration
[13] = tested on: Corynebacterium diphteriae LRP 24; assay: Bacteriostatic power in solid medium (MIC), aerobic Gram positive; assay type: cell-based; conditions: Corynebacterium, LRP24; solid medium; LRP 24; read-out: minimum inhibiting concentration
[14] = tested on: Streptococcus faecalis sub. zymogenes ATCC 12958; assay: as above; assay type: cell-based; conditions: Enterococcus faecalis, ATCC12958; solid medium; LRP 61; read-out: minimum inhibiting concentration
[15] = tested on: Bacteroides fragilis ATCC 23745; assay: Bacteriostatic power in solid medium (MIC), anaerobic; assay type: cell-based; conditions: Bacteroides fragilis, ATCC23745; solid medium; LRP 205; anaerobic; read-out: minimum inhibiting concentration
[16] = tested on: Streptococcus pyogenes LRP 197; assay: Bacteriostatic power in solid medium (MIC), aerobic Gram positive; assay type: cell-based; conditions: Streptococcus pyogenes, LRP197; solid medium; LRP 197; read-out: minimum inhibiting concentration
[17] = tested on: Streptococcus pneumonieae LRP 53; assay: as above; assay type: cell-based; conditions: Streptococcus, LRP53; solid medium; LRP 53; read-out: minimum inhibiting concentration
[18] = tested on: Fusobacterium necrophorum ATCC 27852; assay: Bacteriostatic power in solid medium (MIC), anaerobic; assay type: cell-based; conditions: Fusobacterium necrophorum, ATCC27852; solid medium; LRP 210; anaerobic; read-out: minimum inhibiting concentration
[19] = known; cited from earlier work
[20] = tested on: Pseudomonas aeruginosa LRP 9; assay: Bacteriostatic power in solid medium (MIC), aerobic Gram negative; assay type: cell-based; conditions: Pseudomonas aeruginosa, LRP9, read-out: minimum inhibiting concentration
From the text: as §1, §2, §3, §4

[21] = tested on: Shigella sonnei LRP 5; assay: as above; assay type: cell-based; conditions: Shigella sonnei, LRP5, read-out: minimum inhibiting concentration
From the text: as §1, §2, §3, §4

[22] = tested on: Haemophilus influenzae ATCC 19418; assay: as above; assay type: cell-based; conditions: Haemophilus influenzae, ATCC19418, LRP 213, read-out: minimum inhibiting concentration
From the text: as §1, §2, §3, §4

[23] = tested on: Neisseria Gonorrhoeae ATCC 19424; assay: as above; assay type: cell-based; conditions: Neisseria gonorrhoeae, ATCC19424; solid medium; LRP 214; read-out: minimum inhibiting concentration
[24] = tested on: Acholeplasma laidlawii ATCC 23206; assay: as above; assay type: cell-based; conditions: Acholeplasma laidlawii, ATCC23206; solid medium; LRP 204; read-out: minimum inhibiting concentration
[25] = tested on: Streptococcus pneumonieae LRP 52; assay: Bacteriostatic power in solid medium (MIC), aerobic Gram positive; assay type: cell-based; conditions: Streptococcus, LRP52; solid medium; LRP 52; read-out: minimum inhibiting concentration
[26] = tested on: Streptococcus faecalis LRP 7; assay: as above; assay type: cell-based; conditions: Enterococcus faecalis, LRP7; solid medium; LRP 7; read-out: minimum inhibiting concentration
[27] = tested on: Streptococcus pneumonieae ATCC 6303; assay: as above; assay type: cell-based; conditions: Streptococcus, ATCC6303; solid medium; LRP 35; read-out: minimum inhibiting concentration
[28] = tested on: Micrococcus luteus ATCC 9341; assay: as above; assay type: cell-based; conditions: Micrococcus luteus, ATCC9341; solid medium; LRP 6; read-out: minimum inhibiting concentration

Structure (SMILES): CO[C@H]1C[C@H](O[C@H]2[C@H](C)[C@@H](O[C@@H]3O[C@H](C)C[C@H](N(C)C)[C@H]3O)[C@@H](C)C[C@@]3(CO3)C(=O)[C@H](C)[C@@H](O)[C@@H](C)[C@@H](C)OC(=O)[C@@H]2C)O[C@@H](C)[C@@H]1O [oleandomycin, reference compound]
- MIC [1]: 3.12 µg/mL (≈ 4.54 µM)
- MIC [2]: > 25 µg/mL
- MIC [3]: > 25 µg/mL
- MIC [4]: 0.195 µg/mL (≈ 0.283 µM)
- MIC [5]: > 25 µg/mL
- MIC [6]: > 25 µg/mL
- MIC [7]: 0.39 µg/mL (≈ 0.567 µM)
- MIC [8]: > 25 µg/mL
- MIC [9]: 0.39 µg/mL (≈ 0.567 µM)
- MIC [10]: > 25 µg/mL
- MIC [11]: 0.39 µg/mL (≈ 0.567 µM)
- MIC [12]: > 25 µg/mL
- MIC [13]: 0.097 µg/mL (≈ 0.141 µM)
- MIC [14]: 1.56 µg/mL (≈ 2.27 µM)
- MIC [15]: 0.39 µg/mL (≈ 0.567 µM)
- MIC [16]: 0.195 µg/mL (≈ 0.283 µM)
- MIC [17]: 0.195 µg/mL (≈ 0.283 µM)
- MIC [18]: 6.25 µg/mL (≈ 9.09 µM)
- toxicity [19]: high toxicity
- MIC [20]: > 25 µg/mL
- MIC [21]: > 25 µg/mL
- MIC [22]: > 25 µg/mL
- MIC [23]: 0.195 µg/mL (≈ 0.283 µM)
- MIC [24]: 6.25 µg/mL (≈ 9.09 µM)
- MIC [25]: 0.195 µg/mL (≈ 0.283 µM)
- MIC [26]: 1.56 µg/mL (≈ 2.27 µM)
- MIC [27]: 0.195 µg/mL (≈ 0.283 µM)
- MIC [28]: 0.049 µg/mL (≈ 0.0712 µM)
